Patent US20150110865A1, “CNS STIMULANT AND OPIOID RECEPTOR ANTAGONIST COMBINATION AS A NON-ADDICTIVE, NON-AVERSIVE AND SYNERGISTIC ANTI-OBESITY TREATMENT” (FLORIDA STATE UNIVERSITY RESEARCH FOUNDATION, priority 2013, published 2015)

How the values were obtained:
C57/B6 mice = assay: Conditioned place preference (CPP); assay type: in vivo, mouse; conditions: for time spent in drug-paired chamber, Test sessions compared to PC sessions: p>0.05, n=6; for CPP score compared to saline control group: p>0.05; for time spent in drug-paired chamber, Test sessions compared to pre-conditioning sessions: FIG. 1; for CPP score compared to saline-treated group: FIG. 2
Source text: C57/B6 mice are purchased from Charles River Laboratories. Only male mice are used.
A three-chamber place preference apparatus is used. The apparatus has two equally sized (16.8×12 cm) preference chambers connected by a central chamber (7.2×12 cm), and is outfitted with sliding guillotine-style doors between each chamber. Photobeams connected to a computer system can record animal location and time spent in that location. The central chamber has a gray colored smooth floor. The preference chamber is either white with a mesh floor or black with a bar floor. The CPP procedure included three phases: Pre-conditioning, conditioning and test phases.
The pre-conditioning phase is performed on day 1 (two sessions daily, AM and PM). In each pre-conditioning session, mice are initially placed in the central gray chamber for 2 min and then allowed free access to the white and black chambers for 20 min. The time spent in each chamber is recorded.
For the next phase in the assay, the conditioning phase, the non-preferred chamber (i.e. the chamber in which less time is spent) is designated as the drug-paired chamber and the preferred chamber (i.e. the chamber in which more time was spent) is designated as the vehicle-paired chamber.
The conditioning phase is carried out on each of days 2-6. There are two conditioning sessions daily, morning session between 8 and 10 AM and afternoon session between 2 and 4 PM. There is one session each for vehicle-paired (saline as vehicle) and drug-paired (MPH as drugs) conditions on each day of the conditioning phase. The mice are administered saline or drug (i.p.) in the saline- or drug-paired sessions, respectively and placed in the central gray chamber for 2 min (to isolate injection effect to the central chamber) and then confined to the vehicle-or-drug-paired chamber, respectively for 30 min. On the first day of the conditioning phase, the mouse receive saline during the morning session and the drug in the afternoon session. The next day, the order of treatments is reversed: drug in the morning session and saline in the afternoon session. These two paradigms are alternated for the remainder of the conditioning phase. This conditioning strategy is used for all the experiments except those using naltrexone.
Saline is administered on the first day and naltrexone (or naltrexone+MPH) is administered the following day. Administrations of saline and naltrexone are alternated for each of the next 9 days (total duration of conditioning is 10 days).
During the test phase, (one session on the day after the conditioning phase) the mice are placed in the central gray chamber for 2 min and then given free access to the drug- and saline-paired chambers for 20 min. The time spent in each chamber is recorded. The difference between time spent in the drug-paired chamber during the test phase and pre-conditioning phases was calculated as the CPP score. Saline and the drugs are administered intraperitoneally. All the behavioral analyses are performed during the light phase of the light-dark cycle.
Differences between two experimental groups are analyzed for statistical significance by using Student's t-test. Treatment effects on multiple groups are tested for significance by using one-way ANOVA and the differences among the groups are tested for significance by using Dunnett's multiple comparisons test.

[1] = test system: prenatal nicotine exposure mouse model of ADHD; conditions: cited from earlier work
μ opioid receptor (MOPR) [2] = assay: MOPR activity by DAMGO-stimulated [35S]GTPγS binding in brain membranes of drug-treated mice after the CPP assay; assay type: in vivo, mouse; conditions: low dose MPH 0.75 mg/kg; either brain region; FIG. 4
Description: Activity of the μ opioid receptor (MOPR) is assayed by using [35S]GTPγS binding on membrane preparations. The same mice that are used in the conditioned place preference assay are used for these assays Immediately upon completion of the behavioral assay, the mice are sacrificed by cervical dislocation and the brain is dissected rapidly. The brain is frozen in liquid nitrogen and 1.0 mm slices of the brain were prepared in the coronal plane using a tissue-slicing matrix (Model 15003; Ted Pella, Redding, Calif.). Caudate-putamen and nucleus accumbens are identified in the frozen slices based on anatomical landmarks and samples from these two brain regions are collected using a tissue punch. The samples are homogenized using teflon pestle in Eppendorf tubes (10 strokes) in 300 μl of homogenization buffer containing 25 mMTris/pH 7.4, 5 mMEDTA and 0.1 mMPMSF and kept on ice. Homogenate is diluted to 2.5 ml using the homogenization buffer and centrifuged at −350,000 g for 30 min. […]
(§1) Nonspecific binding is defined by incubation in the presence of 10 μM GTPγS. […] Radioactivity on filters is determined by liquid scintillation counting. […]
Differences between two experimental groups are analyzed for statistical significance by using Student's t-test. […]

[3] = 0.75 mg/kg MPH administered to adult mice; cited from earlier work
μ opioid receptor (MOPR) [4] = target: T1, μ opioid receptor (MOPR) (Mus musculus, UniProt P42866); assay type: biochemical; design: dose or concentration left out as unconfirmed; conditions: caudate-putamen membranes; FIG. 3
T1 construct: Caudate-putamen and nucleus accumbens are identified in the frozen slices based on anatomical landmarks and samples from these two brain regions are collected; from tissue; host or cells: mouse brain: caudate-putamen and nucleus accumbens membrane preparations
Description: Activity of the μ opioid receptor (MOPR) is assayed by using [35S]GTPγS binding on membrane preparations. The same mice that are used in the conditioned place preference assay are used for these assays Immediately upon completion of the behavioral assay, the mice are sacrificed by cervical dislocation and the brain is dissected rapidly. The brain is frozen in liquid nitrogen and 1.0 mm slices of the brain were prepared in the coronal plane using a tissue-slicing matrix (Model 15003; Ted Pella, Redding, Calif.). Caudate-putamen and nucleus accumbens are identified in the frozen slices based on anatomical landmarks and samples from these two brain regions are collected using a tissue punch. The samples are homogenized using teflon pestle in Eppendorf tubes (10 strokes) in 300 μl of homogenization buffer containing 25 mMTris/pH 7.4, 5 mMEDTA and 0.1 mMPMSF and kept on ice. Homogenate is diluted to 2.5 ml using the homogenization buffer and centrifuged at −350,000 g for 30 min. After washing 3 times with 50 mM Tris-HCl/pH 7.4, the pellets are re-suspended in 50 mM Tris-HCl/pH 7.4 containing 0.32 M sucrose, passed through a 26.5 G needle 3 times, frozen in dry ice/ethanol and stored in −80° C. until use.
as §1

[5] = naltrexone 5 mg/kg prior to MPH 7.5 mg/kg, FIG. 6
[6] = naltrexone 10 mg/kg prior to MPH 7.5 mg/kg, FIG. 6

T1 sequence (P42866 whole entry): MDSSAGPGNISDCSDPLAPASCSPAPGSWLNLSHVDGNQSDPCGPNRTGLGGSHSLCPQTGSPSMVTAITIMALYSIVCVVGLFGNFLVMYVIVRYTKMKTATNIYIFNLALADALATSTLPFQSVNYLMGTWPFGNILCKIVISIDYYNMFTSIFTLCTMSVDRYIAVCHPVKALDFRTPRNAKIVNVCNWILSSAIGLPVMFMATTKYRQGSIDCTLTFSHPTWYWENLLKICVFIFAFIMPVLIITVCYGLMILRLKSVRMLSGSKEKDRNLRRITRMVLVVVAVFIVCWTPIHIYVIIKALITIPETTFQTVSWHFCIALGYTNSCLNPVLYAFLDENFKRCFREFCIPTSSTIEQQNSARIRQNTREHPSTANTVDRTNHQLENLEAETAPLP

In the case of `O=C1CC[C@@]2(O)[C@H]3Cc4ccc(O)c5c4[C@@]2(CCN3CC2CC2)[C@H]1O5` [naltrexone], the “time spent in drug-paired chamber, Test sessions compared to PC sessions” value (C57/B6 mice; naltrexone 1 mg/kg alone, FIG. 5) is reported as “Neither saline alone nor naltrexone (1 or 10 mg/kg) alone produces significant changes”, the “CPP score compared to prior treatment with saline” value (C57/B6 mice; naltrexone 1 mg/kg prior to MPH 7.5 mg/kg, FIG. 6) is reported as “significantly decrease the CPP score” and the “CPP score compared to prior treatment with saline” value (C57/B6 mice; [5]) is reported as “significantly decrease the CPP score”. For the same compound, the “CPP score compared to saline control group” value (C57/B6 mice; [5]) was “not significantly different”, the “abuse potential of methylphenidate” value (C57/B6 mice; naltrexone 10 mg/kg administered with 7.5 mg/kg methylphenidate) was “completely abolishes the abuse potential of methylphenidate” and the “time spent in drug-paired chamber, Test sessions compared to PC sessions” value (C57/B6 mice; naltrexone 10 mg/kg alone, FIG. 5) was “Neither saline alone nor naltrexone (1 or 10 mg/kg) alone produces significant changes”. The “CPP score compared to prior treatment with saline” value (C57/B6 mice; [6]) was “significantly decrease the CPP score”, the “CPP score compared to saline control group” value (C57/B6 mice; [6]) was “not significantly different” and the “dose dependence of the decrease in the CPP score” value (C57/B6 mice; naltrexone 1, 5 or 10 mg/kg prior to MPH 7.5 mg/kg, FIG. 6) was “dose-dependent”.
For `COC(=O)C(c1ccccc1)C1CCCCN1` (centres unmarked) [MPH, methylphenidate], the effect on hyperactivity ([1]; 0.75 mg/kg methylphenidate) is listed as “reduce hyperactivity”, the “time after administration at which hyperactivity started to decline” value ([1]; ADHD mouse model) is listed as 2 h and the “MOPR activity compared to the saline group” value (μ opioid receptor (MOPR) [2]) is listed as “no significant difference”. The “time spent in drug-paired chamber, Test sessions compared to pre-conditioning sessions” value (C57/B6 mice; high-dose MPH 7.5 mg/kg i.p., t-test p=0.005, n=6/group) was “significantly longer period of time in the drug-paired chamber”, the “time spent in drug-paired chamber, Test sessions compared to pre-conditioning (PC) sessions” value (C57/B6 mice; high-dose MPH 7.5 mg/kg plus saline, naltrexone experiment, FIG. 5) was “significantly longer period of time in the drug-paired chamber” and the “CPP score compared to saline-treated group” value (C57/B6 mice; high-dose MPH 7.5 mg/kg, multiple comparisons test) was “significant (p<0.05) effects”. The “CPP score compared to saline control” value (C57/B6 mice; high-dose MPH 7.5 mg/kg, naltrexone experiment, p<0.01, FIG. 6) was “significantly greater than that produced by the saline control”, the “time spent in drug-paired chamber, Test sessions compared to pre-conditioning sessions” value (C57/B6 mice; low dose MPH 0.75 mg/kg i.p., t-test p>0.05) was “do not show significant differences” and the “CPP score compared to saline-treated group” value (C57/B6 mice; low dose MPH 0.75 mg/kg) was “no significant difference”. For the same compound, the “serum and brain concentrations of D-methylphenidate” value [3] was “equivalent to the levels seen in human subjects given oral therapeutic doses of MPH”.
For `C[C@@H](NC(=O)[C@@H](N)Cc1ccc(O)cc1)C(=O)NCC(=O)N(C)[C@@H](Cc1ccccc1)C(=O)NCCO` [DAMGO], the “maximal [35S]GTPγS binding” value (μ opioid receptor (MOPR) [4]) was 1.75 fold of the basal level.
